{"source": "patent US10759754B2", "about": "“Aminobenzoic acid derivatives for use as anti-inflammatory agents, anti-metastatic agents and/or anticancer agents” (3R VALO, S.E.C., priority 2016, dated 2020)", "key": {"[1]": {"system": "macrophage-like J774A.1 cells", "test": "IFNγ/TNFα-induced NO production (Griess) in J774A.1 cells", "type": "cell-based, murine", "conditions": "pretreatment then IFNγ and TNFα, hydrochloride", "method": "(§1) Evaluation of NO and Urea production by chemical methods. The MB49-I cells and the J774A.1 cells (25×10^3 cells/well) were grown and pretreated, as indicated, with various anti-inflammatory derivatives, precursors and mono-functional derivatives for a period of 3 h. Afterwards the cells were washed twice with 10% FBS RPMI-1640 and then activated to produce NO for a period of 24 h with cytokines INFγ and TNFα. NO production was measured using the Griess reagent method as previously described.^27 This method involves the detection of nitrite ions (NO2^−) formed by the spontaneous oxidation of NO under physiological conditions. According the manufacture procedure (Life Technologies; # G-7921), equal volumes of sulfanilic acid and N-(1-naphthyl)ethylenediamine are mixed together to form the Griess reagent. In the presence of NO2^−, sulfanilic acid is converted to a diazonium salt, which in turn is coupled to N-(1-naphthyl)ethylenediamine to produce a pink coloration that is measured with a spectrophotometer (Biotek, synergy HT) at 548 nm. In the same manner, urea synthesis through arginase-1 activity was measured using commercially available kit."}, "[2]": {"system": "MHC-II", "test": "Flow cytometry of MHC-II surface antigen in IFNγ-activated human macrophages", "type": "cell-based", "conditions": "compound 4 at 10 μM, compound 5 at 25 μM, hydrochloride", "method": "(§2) Surface antigen expression analysis. To study membrane receptor expression, THP1-derived human macrophages (750×10^4 cells/mL) were pretreated for 3 h with DMSO or compounds 4 and 5, and then left untreated (control) or treated for 48 h with 50 U/mL IFNγ. The expression level of MHC-II and CD40 was evaluated by flow cytometry as described.^21-23"}, "[3]": {"system": "STAT3", "test": "Western blot of phosphorylated STAT3 in IL6-activated human macrophages", "type": "cell-based", "conditions": "human macrophages pretreated 30 min at 10 and 50 μM; 30 min activation with 25 ng/mL IL6; hydrochloride", "method": "(§3) Cell signaling studies: THP1-derived human macrophages (750×10^3 cells/mL) and MB49-I cells (500×10^3 cells/mL) were pretreated for 30 min with vehicle (DMSO), compounds 4 and 5, at 10, 25 or 50 μM; and then washed and recovered immediately (t=0 min) or after 30 min of activation with 50 U/mL IFNγ, 25 ng/mL IL6, or 10 ng/mL TNFα. Cell lysates were prepared and analyzed by immunoblotting as described.^21-23,25 Briefly, protein samples were resolved by SDS-PAGE under reducing conditions and transferred onto a PVDF membrane. Blots were first probed with rabbit polyclonal antibodies against phospho-STAT1 (pSTAT1), pSTAT3, or p-IκB (all at 1:2000) overnight at 4° C. Blots were then incubated with HRP-conjugated goat anti-rabbit IgG Ab (1:3000) for 1 h at room temperature. The same blots were stripped and then probed with anti-STAT1 or anti-STAT3 Abs (both at 1:1000). In both cases, probed molecules were visualized using an enhancement chemiluminescence detection kit (Thermo Fisher Scientific)."}, "[4]": {"system": "STAT1", "test": "Western blot of phosphorylated STAT1 in IFNγ-activated human macrophages", "type": "cell-based", "conditions": "human macrophages pretreated 30 min at 10 and 50 μM; 30 min activation with 50 U/mL IFNγ; hydrochloride", "method": "as §3"}, "[5]": {"system": "UBC cell line MB49-I", "test": "IFNγ/TNFα-induced NO production (Griess) in MB49-I cells", "type": "cell-based, murine", "conditions": "10 and 50 μM", "method": "as §1"}, "[6]": {"system": "CD40", "test": "Flow cytometry of CD40 surface antigen in IFNγ-activated human macrophages", "type": "cell-based", "conditions": "compound 4 at 10 μM, compound 5 at 25 μM, hydrochloride", "method": "as §2"}, "[7]": {"system": "IκB / NFκB signaling pathway", "test": "Western blot of phosphorylated IκB in LPS-activated RAW 264.7 cells", "type": "cell-based, murine", "conditions": "90 min pretreatment at 20 and 37.5 μM, 100 ng/mL LPS 15 min"}, "[8]": {"system": "MB49-I cells", "test": "LPS/IFNγ-induced NO production in MB49-I cells", "type": "cell-based, murine", "method": "as §1, with “Afterwards the cells were washed twice with 10% FBS RPMI-1640 and then activated to produce NO for a period of 24 h with cytokines INFγ and TNFα.” left out"}, "[9]": {"system": "human macrophages THP-1 cells", "conditions": "90 min pretreatment, counted after 24 h"}, "[10]": {"system": "MB49-I tumors", "test": "Ectopic UBC model, MB49-I tumors implanted in the flank of male mice", "type": "in vivo", "conditions": "i.p. 150 μM during 18 days, tumors recovered day 20", "method": "Ectopic UBC model. Male C57BL/6J mice (6-8 weeks old), each weighing 15-18 g, were used for the experiments (supplied by Charles River). The mice were housed with free access to food and water on a 12:12 h light:dark cycle with the room temperature maintained at 21° C. MB49 cells, MB49-I cells, and iNOS-deficient MB49-I cells ([…] in 100 μL PBS) were injected subcutaneously (s.c.) into the right flank of the mice. Growth rates of the s.c. tumors were monitored. The size of tumors was determined every 3 days for 24-28 days using a digital caliper and by measuring luciferin luminescence at days 15 and 25 using the IVIS imaging system. A blinded observer measured tumor length and width. The volume of the tumor was calculated from the formula: Length×width2×0.52, where length and width were tumor diameters measured with calipers in mutually perpendicular directions. At a tumor size of approximately 10 mm^3 the mice were divided into different groups. A control group received PBS as treatment. As indicated, other groups were treated at different doses (90, 150 or 300 μM) with an intraperitoneal (i.p.) injection of compounds 4 or 8 every 3-4 days for 18-20 days.^24,27"}, "[11]": {"system": "STAT1", "test": "Western blot of phosphorylated STAT1 in IFNγ-activated RAW 264.7 cells", "type": "cell-based, murine", "conditions": "90 min pretreatment at 20 and 37.5 μM, 5 ng/mL IFNγ 15 min", "method": "as §3"}, "[12]": {"system": "murine UBC MB49-I cells", "conditions": "90 min pretreatment, counted after 24 h"}, "[13]": {"system": "murine macrophages RAW 264.7 cells", "conditions": "90 min pretreatment, counted after 24 h"}}, "note": "“Also recorded” adds a separate entry of the source."}
{"compound": "Cl.NNC(=O)c1ccc(N2C(=O)C=CC2=O)cc1", "note": "[Compound 5, 4-(2,5-dioxo-2,5-dihydro-pyrrol-1-yl)-benzoic acid hydrazide hydrochloride]", "values": [{"measurement": "combined IFNγ/TNFα-induced NO synthesis", "setting": "[1]", "result": "effective in reducing; also recorded: efficiently inhibited"}, {"measurement": "IFNγ-induced MHC-II expression", "setting": "[2]", "result": "effective in reducing; also recorded: efficiently inhibited"}, {"measurement": "IL6-induced STAT3 activation (ratio of phosphorylated/no phosphorylated proteins)", "setting": "[3]", "result": "decreased; also recorded: efficiently inhibited"}, {"measurement": "IFNγ-induced STAT1 activation (ratio of phosphorylated/no phosphorylated proteins)", "setting": "[4]", "result": "decreased; also recorded: efficiently inhibited"}, {"measurement": "combined IFNγ/TNFα-induced NO synthesis", "setting": "[5]", "result": "efficiently inhibited"}, {"measurement": "IFNγ-induced CD40 expression", "setting": "[6]", "result": "effective in reducing; also recorded: efficiently inhibited"}]}
{"compound": "CC(=O)N(NC(=O)OC(C)(C)C)C(=O)c1ccc(N2C(=O)C=CC2=O)cc1", "note": "[Compound 10, N-acetyl-N-[4-(2,5-dioxo-2,5-dihydro-pyrrol-1-yl)-benzoyl]-hydrazinecarboxylic acid tert-butyl ester]", "values": [{"measurement": "LPS-activated NFκB signaling pathway (ratio p-IkB/IkB)", "setting": "[7]", "result": "efficient to inhibit"}]}
{"compound": "CC(C)(C)OC(=O)NNC(=O)c1ccc(N2C(=O)CCC2=O)cc1", "note": "[Compound 12, N′-[4-(2,5-dioxo-pyrrolidin-1-yl)-benzoyl]-hydrazine carboxylic acid tert-butyl ester]", "values": [{"measurement": "LPS/IFNγ-induced NO synthesis", "setting": "[8]; compound 4 at 30 μM, compound 12 at 10, 20, 37.5 and 50 μM", "result": "lost its anti-inflammatory activity; also recorded: does not affect"}]}
{"compound": "CC(=O)N(C(=O)OC(C)(C)C)N(C(C)=O)C(=O)c1ccc(N2C(=O)C=CC2=O)cc1", "note": "[Compound 11, N,N′-diacetyl-N′-[4-(2,5-dioxo-2,5-dihydro-pyrrol-1-yl)-benzoyl]-hydrazinecarboxylic acid tert-butyl ester]", "values": [{"measurement": "LPS-activated NFκB signaling pathway (ratio p-IkB/IkB)", "setting": "[7]", "result": "efficient to inhibit"}]}
{"compound": "CC(=O)N(NC(=O)c1ccc(N2C(=O)C=CC2=O)cc1)C(C)=O", "note": "[Compound 8, 4-(2,5-dioxo-2,5-dihydro-pyrrol-1-yl)-benzoic acid N′-diacetyl-hydrazide]", "values": [{"measurement": "IFNγ/LPS-induced NO production", "setting": "[8]; 20 and 37.5 μM", "result": "more efficient than compound 4"}, {"measurement": "cytotoxic effect (cell viability)", "setting": "[9]", "result": "lower than that of compound 4"}, {"measurement": "tumor volume of muscle-invasive MB49-I tumors", "setting": "[10]", "result": "anti-proliferative activity; also recorded: more efficient than compound 4"}, {"measurement": "IFNγ-activated STAT1 signaling pathway (ratio p-STAT1/STAT1)", "setting": "[11]", "result": "more efficient than other compounds"}, {"measurement": "LPS-activated NFκB signaling pathway (ratio p-IkB/IkB)", "setting": "[7]", "result": "efficient to inhibit"}, {"measurement": "cytotoxic effect (cell viability)", "setting": "[12]", "result": "lower than that of compound 4"}, {"measurement": "cytotoxic effect (cell viability)", "setting": "[13]", "result": "lower than that of compound 4"}]}
